In patent US20230285434A1 (priority 2020, published 2023) one finds inhibition and Inhibition data, which are given here for three compounds.

“And” between values parts separate entries of the source, which are not always exact repeats. Equal values may be shown once. Where a name gives a salt, the structure may show the parent alone.

A word on the inhibition: it is the relative decrease from the control value, in per cent. As a reminder, the Inhibition is how much of the control response was suppressed.

Assay [1] concerns Lassa virus. Description: microbe, parasite or virus in culture. Format: cell-based. The note with it: Mammarenavirus lassaense, Vero C1008.
Assay [2] has as its system Lassa virus. Description: microbe, parasite or virus in culture. The assay is classed as cell-based.
Where [3] appears, read: Mammarenavirus lassaense, Huh-7.

Turning to `NC(=O)c1cn([C@@H]2O[C@H](CO)[C@@H](O)[C@H]2O)c2ncnc(N)c12` [Oya1, 4-amino-7-((2R,3R,4S,5R)-3,4-dihydroxy-5-(hydroxymethyl)tetrahydrofuran-2-yl)-7H-pyrrolo[2,3-d]pyrimidine-5-carboxamide], in the assay with Lassa virus [1], the inhibition at 0.075 µM was 89.2%, the inhibition at 0.15 µM stood at 100%, the inhibition at 0.3 µM turned out to be 101% and the inhibition at 0.6 µM was 101%. Besides, the Inhibition in the assay on Lassa virus [2] (0.0047 µM) was 33.96% and 28.083% and 24.36% and 25.62% and 25.65%. The Inhibition with Lassa virus [2] (0.0094 µM) was 26.74% and 30.9% and 23.28% and 15.83% and 22.14% and 20.065%. In addition, in the assay on Lassa virus [2] (setting [3]), the inhibition at 0.0047 µM worked out at 32.3%, the inhibition at 0.15 µM is 79.9%, the inhibition at 0.3 µM came out at 97.6% and the inhibition at 0.6 µM amounted to 98.8%.

As to `Cl.NC(=O)c1cn([C@@H]2O[C@H](CO)[C@@H](O)[C@H]2O)c2ncnc(N)c12` [Oya2, 4-amino-7-((2R,3R,4S,5R)-3,4-dihydroxy-5-(hydroxymethyl)tetrahydrofuran-2-yl)-7H-pyrrolo[2,3-d]pyrimidine-5-carboxamide hydrochloride], the Inhibition in the assay on Lassa virus [2] (0.0047 µM, hydrochloride) was 28.74% and 26.14% and 27.5%; in the assay with Lassa virus [2] (0.0094 µM, hydrochloride), 21.1% and 20.68% and 22.57%.

As to `CN(C)CCOc1ccc(/C(=C(/CCCl)c2ccccc2)c2ccccc2)cc1` [Toremifene citrate, reference compound], the Inhibition with Lassa virus [2] (0.4688 µM) is 31.7829% and 32.93% and 31.98% and 27.3% and 32.75%. Moreover, the Inhibition in the assay on Lassa virus [2] (0.9375 µM) is 22.38% and 19.16% and 30.38% and 25.19% and 18.19%. For the same compound, the Inhibition in the assay with Lassa virus [2] (1.875 µM) is 18.84% and 15.13% and 24.79% and 16.6% and 19.82%. Also, the Inhibition in the assay with Lassa virus [2] (3.75 µM) is 15.93% and 10.32% and 20.17% and 17.07% and 18.53%. Also, in the assay with Lassa virus [2] (setting [3]), the inhibition at 0.4688 µM was found to be 37.4%, the inhibition at 0.9375 µM stood at 29.9%, the inhibition at 1.875 µM was found to be 20.9% and the inhibition at 3.75 µM stood at 16.3%.
